US20130085161A1, “PIPERIDINYL SUBSTITUTED 1,3-DIHYDRO-BENZOIMIDAZOL-2-YLIDENEAMINE DERIVATIVES” (NOVARTIS AG, priority 2010, published 2013)

Biological target: T1, BaF3-Tel-IGF1-R (Homo sapiens, UniProt P08069)
T1 construct: the kinase domain of IGF-1R (aa 976-1367) linked by a Ser-Arg-linker; expressed in transfected cells; host or cells: BaF3 murine proB-cell lymphoma cells, stably transduced
Test: BaF3 cell viability assay (resazurin), 384-well format
Format: cell-based
Conditions: 384-well plate format; 48 h incubation; resazurin dye reduction; cell proliferation/viability
Source text: BaF3-Tel-IGF1-R and BaF3-InsR are BaF3 murine proB-cell lymphoma cell derivatives [the BaF3 cell line (also termed Ba/F3) is available from the German Collection of Microorganisms and Cell Cultures (DSMZ), Braunschweig, Germany] that have been rendered IL-3-independent by stable transduction with kinase-activating fusions between human TEL (aa 1-452) and the kinase domain of IGF-1R (aa 976-1367) linked by a Ser-Arg-linker (Boulay et al, Cancer Res 68, 3743-3751, 2008), and a fusion between human TEL (aa 1-337) and the kinase domain (aa 1015-1382) of the Insulin receptor (Melnick J S et al, Proc Natl Acad Sci USA 103, 3153-3158, 2006), respectively. Cells are cultured in RPMI-1640 (Animed #1-14F01-1) supplemented with 2% L-glutamine (Animed #5-10K50-H) and 10% fetal calf serum (FCS, Animed #2-01F16-I). Wild-type, untransfected BaF3 cells are maintained in above medium plus 10 U/ml IL-3 (mouse Interleukin-3, Roche #1380745 or Invitrogen # PMC0035) and are used to identify non-selective, generally growth-inhibitory compounds. Cells (1.5×10^4 cells per well) are seeded in 190 μl fresh medium into 96-well plates. 10 μl 20× compound solutions are added. As internal control, the kinase inhibitor PKC412 is routinely used. Control cells treated with DMSO (0.1% final concentration) serve as growth reference (set as 100% growth). In addition, a plate blank value is routinely determined in a well containing only […] of medium and no cells. IC50 determinations are performed based on eight 3-fold serial dilutions of the test compound, starting at 10 μM. Following incubation of the cells for 48 h at 37° C. and 5% CO2, the effect of inhibitors on cell viability is assessed by the resazurin sodium salt dye reduction assay (commercially known as AlamarBlue assay) basically as previously described (O'Brien J. et al., Eur. J. Biochem. 267: 5421-5426, 2000). Briefly, 20 μl dye solution is added per well and the plates incubated for 6 h at 37° C. and 5% CO2. Thereafter, fluorescence is measured using a Saphirell 96-well plate reader (TECAN, Männedorf, Switzerland) with the following settings: Excitation 544 nm and Emission 590 nm. For data analysis, the plate blank value is subtracted from all data points. The effect of a particular test compound concentration on cell proliferation and viability is expressed as percentage of the blank-corrected reading obtained for cells treated with vehicle only, which is set as 100%. IC50 values can be determined using XLfit (V4.2), applying standard four parameter logistic model #205 (IDBS, Guilford, UK) or other common curve-fitting software.
To achieve a higher throughput, the cell viability assay can also be performed in a 384-well format. Briefly, 4′500 freshly diluted cells are seeded in 54 μl/well into 384-well plates using a liquid dispenser. 6 μl 10× compound solution is added to the cell plate. As internal control, the kinase inhibitor PKC412 is routinely used. Control cells treated with DMSO (0.1% final concentration) serve as growth reference (set as 100% growth). In addition, a plate blank value is routinely determined in a well containing only 60 μl of medium and no cells. Dose-response effects are determined by 3-fold serial compound dilutions, starting at 10 μM. Following incubation of the cells for 48 h at 37° C. and 5% CO2, the effect of compounds on cell proliferation/viability is assessed by addition of 6 μl resazurin sodium salt dye solution per well. Following incubation for an additional 6 hrs at 37° C. and 5% CO2, fluorescence is measured using an Infiniti M1000 microplate reader (TECAN, Männedorf, Switzerland) with excitation and emission wavelengths set at 544 and 590 nm, respectively. For data analysis, the plate blank value is subtracted from all data points. IC50 values can be determined by four parameter logistic fitting as described above.

T1 sequence (P08069 976-1367): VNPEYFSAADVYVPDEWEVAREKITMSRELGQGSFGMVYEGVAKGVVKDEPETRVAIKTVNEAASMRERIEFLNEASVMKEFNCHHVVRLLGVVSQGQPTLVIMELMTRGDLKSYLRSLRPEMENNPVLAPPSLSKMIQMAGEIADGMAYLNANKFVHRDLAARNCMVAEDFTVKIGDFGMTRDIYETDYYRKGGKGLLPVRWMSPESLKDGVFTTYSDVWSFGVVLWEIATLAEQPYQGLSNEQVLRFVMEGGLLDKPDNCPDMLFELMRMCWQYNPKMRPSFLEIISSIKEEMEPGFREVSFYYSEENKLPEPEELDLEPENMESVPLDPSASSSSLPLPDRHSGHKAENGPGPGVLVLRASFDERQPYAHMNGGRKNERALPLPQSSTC

## CC(=O)Nc1ccc(Cl)cc1N1CC[C@H](n2c(=N)n(Cc3ccccc3Cl)c3ccc(F)cc32)[C@@H](O)C1 (racemic) [Example 67.1, Rac-trans-N-(4-Chloro-2-{4-[3-(2-chloro-benzyl)-6-fluoro-2-imino-2,3-dihydro-benzo-imidazol-1-yl]-3-hydroxy-piperidin-1-yl}-phenyl)-acetamide]
  IC50: 10 nM

## CC(=O)Nc1ccc(C)cc1N1CCC(n2c(=N)n(Cc3cccc4[nH]ccc34)c3ccccc32)CC1 [Example 56, N-(2-{4-[2-Imino-3-(1H-indol-4-ylmethyl)-2,3-dihydro-benzoimidazol-1-yl]-piperidin-1-yl}-4-methyl-phenyl)acetamide]
  IC50: < 4.5 nM

## CC(=O)Nc1ccc(C(F)(F)F)cc1N1CCC(n2c(=N)n(Cc3ccccc3Cl)c3ccccc32)CC1 [Example 56.7, N-(2-{4-[3-(2-Chloro-benzyl)-2-imino-2,3-dihydro-benzoimidazol-1-yl]-piperidin-1-yl}-4-trifluoromethyl-phenyl)-acetamide]
  IC50: 69 nM

## CC(=O)Nc1ccc(C)nc1N1CCC(n2c(=N)n(Cc3ccccc3Cl)c3ccc(F)cc32)CC1 [Example 78, N-{4-[3-(2-Chloro-benzyl)-6-fluoro-2-imino-2,3-dihydro-benzoimidazol-1-yl]-6′-methyl-3,4,5,6-tetrahydro-2H-[1,2′]bipyridinyl-3′-yl}-acetamide]
  IC50: 62 nM

## CC(=O)Nc1ccc(Cl)cc1N1CC[C@H](n2c(=N)n(Cc3cccc4[nH]ccc34)c3ccc(F)cc32)[C@@H](O)C1 (racemic) [Example 67, Rac-trans-N-(4-Chloro-2-{4-[6-fluoro-2-imino-3-(1H-indol-4-ylmethyl)-2,3-dihydro-benzoimidazol-1-yl]-3-hydroxy-piperidin-1-yl}-phenyl)-acetamide]
  IC50: 23 nM

## CC(=O)Nc1ccc(Cl)cc1N1CCC(n2c(=N)n(Cc3cccc4[nH]nnc34)c3ccc(F)cc32)CC1 [Example 63, N-(2-{4-[3-(1H-Benzotriazol-4-ylmethyl)-6-fluoro-2-imino-2,3-dihydro-benzoimidazol-1-yl]-piperidin-1-yl}-4-chloro-phenyl)-acetamide]
  IC50: 22 nM

## CC(=O)Nc1ccc(Cl)cc1N1CCC(n2c(=N)n(Cc3ccccc3Cl)c3ccccc32)CC1 [Example 58, N-(4-Chloro-2-{4-[3-(2-chloro-benzyl)-2-imino-2,3-dihydro-benzoimidazol-1-yl]-piperidin-1-yl}-phenyl)-acetamide]
  IC50: 37 nM

## CC(=O)Nc1ccccc1N1CCC(n2c(=N)n(Cc3cccc4[nH]ccc34)c3ccccc32)CC1 [Example 56.2, N-(2-{4-[2-Imino-3-(1H-indol-4-ylmethyl)-2,3-dihydro-benzoimidazol-1-yl]-piperidin-1-yl}-phenyl)-acetamide]
  IC50: 42 nM

## CC(=O)Nc1ccc(C(F)(F)F)cc1N1CCC(n2c(=N)n(Cc3cccc4[nH]ccc34)c3ccccc32)CC1 [Example 56.3, N-(2-{4-[2-Imino-3-(1H-indol-4-ylmethyl)-2,3-dihydro-benzoimidazol-1-yl]-piperidin-1-yl}-4-trifluoromethyl-phenyl)-acetamide]
  IC50: 52 nM

## COc1ccc(NC(C)=O)c(N2CCC(n3c(=N)n(Cc4cccc5[nH]ccc45)c4ccccc43)CC2)c1 [Example 56.1, N-(2-{4-[2-Imino-3-(1H-indol-4-ylmethyl)-2,3-dihydro-benzoimidazol-1-yl]-piperidin-1-yl}-4-methoxy-phenyl)-acetamide]
  IC50: 35 nM

## CC(=O)Nc1ccc(C#N)cc1N1CCC(n2c(=N)n(Cc3ccccc3Cl)c3ccccc32)CC1 [Example 56.9, N-(2-{4-[3-(2-Chloro-benzyl)-2-imino-2,3-dihydro-benzoimidazol-1-yl]-piperidin-1-yl}-4-cyano-phenyl)-acetamide]
  IC50: 82 nM

## CC(=O)Nc1ccc(C)nc1N1CCC(n2c(=N)n(Cc3cccc4[nH]ccc34)c3ccc(F)cc32)CC1 [Example 65, N-{4-[6-Fluoro-2-imino-3-(1H-indol-4-ylmethyl)-2,3-dihydro-benzoimidazol-1-yl]-6′-methyl-3,4,5,6-tetrahydro-2H-[1,2′]bipyridinyl-3′-yl}-acetamide]
  IC50: 5 nM

## CC(=O)Nc1ccc(C(F)(F)F)cc1N1CCC(n2c(=N)n(Cc3cccc4[nH]nnc34)c3ccccc32)CC1 [Example 56.8, N-(2-{4-[3-(1H-Benzotriazol-4-ylmethyl)-2-imino-2,3-dihydro-benzoimidazol-1-yl]-piperidin-1-yl}-4-trifluoromethyl-phenyl)-acetamide]
  IC50: 209 nM

## CC(=O)Nc1ccc(C)cc1N1CCC(n2c(=N)n(Cc3ccccc3Cl)c3ccccc32)CC1 [Example 56.5, N-(2-{4-[3-(2-Chloro-benzyl)-2-imino-2,3-dihydro-benzoimidazol-1-yl]-piperidin-1-yl}-4-methyl-phenyl)-acetamide]
  IC50: 51 nM

## CC(=O)Nc1ccc(C)cc1N1CCC(n2c(=N)n(Cc3ccccc3Cl)c3ccc(F)cc32)CC1 [Example 56.12, N-(2-{4-[3-(2-Chloro-benzyl)-6-fluoro-2-imino-2,3-dihydro-benzoimidazol-1-yl]-piperidin-1-yl}-4-methyl-phenyl)-acetamide]
  IC50: 48 nM

## CC(=O)Nc1ccc(Cl)nc1N1CCC(n2c(=N)n(Cc3ccccc3Cl)c3ccc(F)cc32)CC1 [Example 77, N-{6′-Chloro-4-[3-(2-chloro-benzyl)-6-fluoro-2-imino-2,3-dihydro-benzoimidazol-1-yl]-3,4,5,6-tetrahydro-2H-[1,2′]bipyridinyl-3′-yl}-acetamide]
  IC50: 68 nM

## CC(=O)Nc1ccc(Cl)cc1N1CC[C@H](n2c(=N)n(Cc3cccc4[nH]cnc34)c3ccc(F)cc32)[C@@H](O)C1 (racemic) [Example 67.7, Rac-trans-N-(2-{4-[3-(1H-Benzo-imidazol-4-ylmethyl)-6-fluoro-2-imino-2,3-dihydro-benzo-imidazol-1-yl]-3-hydroxy-piperidin-1-yl}-4-chloro-phenyl)-acetamide]
  IC50: 644 nM

## COc1ccc(NC(C)=O)c(N2CCC(n3c(=N)n(Cc4ccccc4Cl)c4ccccc43)CC2)c1 [Example 56.10, N-(2-{4-[3-(2-Chloro-benzyl)-2-imino-2,3-dihydro-benzoimidazol-1-yl]-piperidin-1-yl}-4-methoxy-phenyl)-acetamide]
  IC50: 88 nM

## CC(=O)Nc1ccc(Cl)cc1N1CCC(n2c(=N)n(Cc3cccc4[nH]nnc34)c3ccccc32)CC1 [Example 60, N-(2-{4-[3-(1H-Benzotriazol-4-ylmethyl)-2-imino-2,3-dihydro-benzoimidazol-1-yl]-piperidin-1-yl}-4-chloro-phenyl)-acetamide]
  IC50: 64 nM

## CC(=O)Nc1ccc(Cl)cc1N1CC[C@H](n2c(=N)n(Cc3cccc4[nH]nnc34)c3ccc(F)cc32)[C@@H](O)C1 (racemic) [Example 67.6, Rac-trans-N-(2-{4-[3-(1H-Benzo-triazol-4-ylmethyl)-6-fluoro-2-imino-2,3-dihydro-benzoimidazol-1-yl]-3-hydroxy-piperidin-1-yl}-4-chloro-phenyl)-acetamide]
  IC50: 517 nM

## CC(=O)Nc1ccc(C#N)cc1N1CCC(n2c(=N)n(Cc3cccc4[nH]ccc34)c3ccccc32)CC1 [Example 56.4, N-(4-Cyano-2-{4-[2-imino-3-(1H-indol-4-ylmethyl)-2,3-dihydro-benzoimidazol-1-yl]-piperidin-1-yl}-phenyl)-acetamide]
  IC50: 100 nM
